Three compounds from EP0942896B1, “SUBSTITUTED PHENOLS AND THIOPHENOLS USEFUL AS ANTIOXIDANT AGENTS” (Aventis Pharmaceuticals Inc., priority 1996, dated 1998) can be followed below.

For assay [1], the system named is Choleterol-Fed Female New Zealand White Rabbits. Put plainly: Hypocholesterolemic effects in cholesterol-fed rabbits: serum cholesterol, lipoprotein cholesterol, triglycerides. The assay is classed as in vivo. The note with it: % of control, diet 0.4%, 7 days, 0.2% cholesterol chow, N = 5. The source says: (§1) Perform five independent experiments in the following manner. Each study has a control group and 1-5 groups treated with MDL compound (N = 5 per group). Feed Female New Zealand White rabbits (Hazelton, ∼ 2.0-2.3 kg) 0.2% cholesterol enriched rabbit chow (Purina #5322) with or without 0.4% MDL compound. Solubilize the MDL compounds in 100% ethanol. Spray the chow with the MDL mixtures and allow to dry overnight in a chemical fume hood. Spray control chow with ethanol. Feed rabbits 100 grams food per day for 7 days (0.6% MDL 103,491 were fed for 14 days); make available water ad libitum. On day 7, bleed (~ 2 mL) rabbits (fasted overnight) from a marginal ear vein. Euthanize rabbits by carbon dioxide overdose. Record the total body and liver weights in grams. Record food as grams • day^-1 · rabbit^-1. Use aliquots of fresh serum for clinical chemistries, lipoprotein cholesterol determination, thiobarbituric acid reactive substances (TBARS) and compound and metabolite concentrations in serum. Freeze livers (∼ 5 gram aliquots) at -20°C for compound and metabolite concentration determination at a later time.
Allow blood to clot at room temperature for 30 minutes. Obtain serum after centrifugation for 10 min at 5°C at 3000 rpm in a Beckman GPKR centrifuge with a GH rotor. Analyze by a COBAS MIRA autoanalyzer (Roche Diagnostics) using Roche diagnostic reagents for total cholesterol (CHOL, kit # 44334) and triglyceride (TG, kit # 44120). Calculate cholesterol and triglycerides as mg/dL.
Separate lipoprotein fractions (very low density lipoprotein, VLDL, low density lipoprotein, LDL and high density lipoprotein, HDL) on a Sepharose 6HR column (1 x 30 cm, Pharmacia) attached to a Waters Powerline HPLC system. Inject serum (50 µL) onto the column and elute with phosphate buffered saline, pH 7.4, at a flow rate of 0.5 mL/min. Add cholesterol reagent (Roche Diagnostics, kit # 44334, diluted with 20 mL water and then with 20 mL of 0.9% saline) at 0.2 mL/min to the post column eluant and incubate in a knitted PFTE Kratos reaction coil (Applied Biosystems) at 37°C for 5 min. Measure absorbance at 500 nm. The lipoprotein subfractions are quantitated as follows: (total serum cholesterol) x (% area under the curve for each subfraction) [formula]

Assay [2] concerns oxidation of serum lipids. Nature of the assay: TBARS assay on serum of treated cholesterol-fed rabbits (CuSO4-initiated oxidation). The assay is classed as in vivo, Female New Zealand White rabbits. Conditions: % of control, thiobarbituric acid reactive substances as nmole MDA, diet 0.4%, 7 days, N = 5.
From the text: as §1, with “Freeze livers (∼ 5 gram aliquots) at -20°C for compound and metabolite concentration determination at a later time.” left out
TBARS are a […] indication of the oxidation of lipids in a sample. […] Upon incubation with thiobarbituric acid, the absorbance of the aldehydes can be detected at 530-540 nm. […] Measure absorbances at 540 nm using a Biotek model EL311 microplate reader. The nmoles of MDA produced are calculated from a standard curve of 0 to 10 nmoles of MDA prepared from malonaldehyde bis(dimethylacetal). […]

A further assay relates to oxidation of lipids. Put plainly: Conjugated diene lag phase determination on pooled serum of treated rats. The assay is classed as in vivo, Male Sprague-Dawley rats. The note with it: not normalized, mean of 2 determinations of pooled rat serum (N = 5), diet 0.3%, 4 days. The source says:
A typical experiment consists of 4-6 groups of rats (N = 5 per group) with I group being a control which receives no MDL compound and the other groups being treated with 0.3% MDL compound. Some of the compounds are either repeated at 0.3% or evaluated again at the lower dose of 0.1%. House Male Sprague-Dawley rats, 50-100 g, (Harlan Laboratories, Indianapolis, IN) in groups of 5, feeding ad libitum water and Purina Rodent chow (#5002) with or without MDL compound as a dietary admixture for 4 days. Make dietary admixtures (0.3%) by mixing 1.2 grams of an MDL compound with 400 grams of Purina rodent chow (#5002). Mix the MDL compound with approximately 50 grams of food using a mortar and pestle. This is added to the remainder of the food and mixed for 3 hours on a rotary mixer. In the morning of day 5, anesthetize non-fasted rats with carbon dioxide, and collect blood by cardiac puncture. Sacrifice rats by cervical dislocation. Record body weights and liver weights in grams. Record food consumption as grams • day^-1 • rat^-1. Deaths are recorded as mortality. Use aliquots of fresh serum for clinical chemistries, thiobarbituric acid reactive substances (TBARS) and conjugated diene measurements. Freeze aliquots of serum (∼ 0.5mL) and whole livers at -20°C for compound and metabolite concentration determination at a later time.
Conjugated diene lag phase is another indicator of the oxidation of lipids. Lipids exposed to Cu^++ form conjugated dienes that absorb ultraviolet light in the range of 230 to 235 nm. The lag phase of diene formation gives an indication of the amount of oxidation of the lipids. A lag phase longer than control samples indicate inhibition of the oxidation. Determine conjugated diene lay phase using a Varian DMS200 spectrophotometer (fitted with a constant temperature, 5 cuvette sample changer) at 30°C. Add twenty (20) µL of pooled serum to cuvettes containing 3.0mL phosphate buffered saline, pH 7.5, and mix. Measure the absorbances of all cuvettes and set the instrument baseline to zero using the lowest absorbing sample. Next, add 100µL of 1 mmol CuSO4 and mix immediately. Record the absorbance of each cuvette at 2 min intervals for a period of 840 min. Capture the data and transfer to a Microsoft EXCEL® spreadsheet where the curves are smoothed and differentials obtained. Determine lag times mathematically as minutes. Pool serum samples (N = 5); data presented are the mean values of 2 determinations. Compare serum samples from treated rats to serum samples from control rats that received no MDL compound.

`CC(C)=CCC[C@H](C)CCOc1cc(C(C)(C)C)c(O)c(C(C)(C)C)c1` [MDL 103,294, Phenol, 2,6-bis(1,1-dimethylethyl)-4-[(3,7-dimethyl-6-octenyl)oxy]-, (S)-] had an HDL in assay [1] (High Density lipoprotein cholesterol) of 192%. In assay [1] (Low Density lipoprotein cholesterol), this compound had an LDL of 82%. In assay [1] (total cholesterol in serum, fasted overnight), the chol tot. is 94%. For the same compound, in assay [1] (triglycerides in serum), the TRIG turned out to be 197%. The same compound showed a TBARS in assay [2] of 35%.

As to `CC(C)=CCCC(C)CCSc1cc(C(C)(C)C)c(O)c(C(C)(C)C)c1` (stereo not shown) [MDL 103,960, Phenol, 2,6-bis(1,1-dimethylethyl)-4-[(3,7-dimethyl-6-octenyl)thio]-], the “CONJ. DIENE” value in the assay with oxidation of lipids stood at 363 min.

With `CC(C)CCCC(C)CCOc1ccc(O)c(C(C)(C)C)c1` (stereo not shown) [MDL 104,191, Phenol, 2-(1,1-dimethylethyl)-4-[(3,7-dimethyloctyl)oxy]-], the “CONJ. DIENE” value in the assay on oxidation of lipids amounted to 708 min.
